Experimental data from patent publication US20020028807A1, “Non-nucleoside reverse transcriptase inhibitors” (priority 2000, published 2002).

Assays:
[1] = system: HIV coding for mutant reverse transcriptase V106A; test: ELISA (p24) assay of HIV replication in C8166 cell culture, V106A virus; type: cell-based, HIV-1; settings: Human immunodeficiency virus 1, C8166, 72 h, read-out: EC50 V106A
Description: (§1) Compounds of the invention were tested for their ability to inhibit HIV replication in cell culture in a 96-well plate assay. Complete RPMI 1640, consisting of RPMI 1640+10% fetal bovine serum, 10 μg/ml gentamycin and 10 μM β-mercaptoethanol was used for dilution of the compound as well as cell growth medium. The T lymphocyte cell line C8166 was infected at a multiplicity of infection of 0.001 with viruses coding for wild-type and mutant reverse transcriptase. Cells were then incubated for three days in the presence of serial dilutions of the compounds of the invention. The supernatant was pooled from eight replica wells and the concentration of extracellular p24 was determined using a commercially available HIV-1 p24 antigen assay kit (Beckman-Coulter®). The level of inhibition (% inhibition) was calculated with the following equation: [formula]

[2] = system: HIV coding for mutant reverse transcriptase Y188L; test: ELISA (p24) assay of HIV replication in C8166 cell culture, Y188L virus; type: cell-based, HIV-1; settings: Human immunodeficiency virus 1, C8166, 72 h, read-out: EC50 Y188L
Description: as §1

[3] = system: HIV coding for wild-type reverse transcriptase (WT RT); test: ELISA (p24) assay of HIV replication in C8166 cell culture, wild-type RT virus; type: cell-based, HIV-1; settings: Human immunodeficiency virus 1, C8166, 72 h, read-out: EC50 WT RT
Description: as §1

[4] = molecular target: T1, HIV-1 RT K103N/Y181C (Human immunodeficiency virus type 1 group M subtype B, UniProt P03366, K702N/Y780C); test: Reverse transcriptase (RT) assay, K103N/Y181C mutant; type: biochemical
T1 construct: an HIV RT clone pKRT2 containing only the RT p66 gene regulated by the lac operon/trc promoter; made in house; host or cells: E. coli JM109, vector pKK233-2
Text: (§2) Among the enzymes for which Human Immunodeficiency Virus (HIV-1) encodes is a reverse transcriptase (1), so-named because it transcribes a DNA copy from an RNA template. This activity can be quantitatively measured in a cell-free enzyme assay and is based upon the observation that reverse transcriptase is able to use a synthetic template poly r(C) primed with a biotinylated oligo d(G) to transcribe a radio-labelled DNA strand utilising 3H-dGTP as a substrate. The assay described below utilises the wild-type enzyme (which is the predominant form of the enzyme observed in patients infected with HIV-1) and can also be used with mutant RT enzymes (for example, Y181C, prepared by site-directed mutagenesis in which the tyrosine residue at codon 181 has been replaced by a cysteine residue) in analogous assay conditions. This assay allows compounds to be evaluated for their effectiveness at inhibiting the mutant enzymes.
(§3) Some HIV-1 IIIB clone BH10 RT mutants were provided by Dr. C.-K. Shih (Boehringer Ingelheim Pharmaceutials Inc., U.S.A.) in the vector pKK233-2 (Pharmacia). Briefly an HIV RT clone pKRT2 containing only the RT p66 gene regulated by the lac operon/trc promoter was obtained from Dr. W. Summers (Yale University) (2). A variety of specific amino acid substitutions were introduced into the wild-type RT gene by site-directed mutagenesis. RT clones were subcloned into the pKK233-2 bacterial expression vector. Clones provided included wild-type, Val106Ala, Tyr181Cys, Tyr188Cys, Tyr188Leu, Gly190Ala and Pro236Leu. Others were made in-house by site-directed mutagenesis of the pKK233-2 RT clones including Lys103Asn, Lys103Asn/Tyr181Cys, Lys103Asn/Leu100Ile, Lys103Asn/Pro225His, and Lys103Asn/Val108Ile.
(§4) Purification of recombinant reverse transcriptase was performed using a combination of methods previously described (3). A single colony from a fresh plate of transformed JM109 cells was used to initiate growth of a pre-culture grown o/n at 37° C. Two liters of growth medium were inoculated with this pre-culture. At OD600˜1.5 (5-6 h at 37° C.), RT gene expression was induced with IPTG (1 mM final), and the fermentation was continued for a few more hours at 37° C. After centrifugation, supernatants were discarded while cell pellets were pooled and stored at −80° C. until purification. Cells were thawed at 4° C. overnight and suspended in lysis buffer (MES 50 mM pH 6, EDTA 1 mM, 10% v/v glyerol, 0.02% w/v OBG, 0.02% w/v sodium azide). Lysozyme was added and the mixture was incubated on ice for 40 minutes. After homogenization using a bounce in presence of lysozyme and sonication, the cells were centrifuged for 30 minutes. Supernatant (S1) was saved and stored at 4° C. The centrifuged pellet was resuspended in extraction buffer (MES 50 mM pH 6, KPO4 50 mM pH 6, KCl 100 mM, 10% v/v glycerol, 0.02% w/v OBG, 0.02% w/v sodium axide) and stirred for 30 minutes at 4° C. This second mixture was centrifuged again and the supernatant (S2) was saved. The above procedure was repeated 2 more times saving supernatants S3 and S4 and one last extraction was performed overnight (S5). Polymin P (0.005% final) was added to the combined supernatants to remove nucleic acids. This solution was stirred for 75 minutes at 4° C. and centrifuged for 1 h. The supernatant (SS1) was precipitated on ice with 20% w/v ammonium sulfate and stirred for 1 h at 4° C. The mixture was then centrifuged and the resulting supernatant (SS2) was precipitated with additional 40% w/v ammonium sulfate (60% total), stirred for 1 h and centrifuged again. The final pellet (P1) was stored overnight at 4° C. before undergoing purification the following day. All steps of the purification were performed at 4° C. unless otherwise stated.
(§5) Pellet (P1) was resuspended into MES 50 mM pH 6, KPO4 10 mM pH 6, KCl 100 mM, 10% v/v glycerol, 0.02% w/v OBG, 0.02% w/v sodium azide. The suspension was dialysis against the same buffer overnight using 12-14 kD MWCO dialysis tubing. […]

[5] = molecular target: T2, HIV-1 RT wild-type (WT) (Human immunodeficiency virus type 1 group M subtype B, UniProt P03366); test: Reverse transcriptase (RT) assay, wild-type enzyme; type: biochemical
T2 construct: an HIV RT clone pKRT2 containing only the RT p66 gene regulated by the lac operon/trc promoter; made in house; host or cells: E. coli JM109, vector pKK233-2
Text: as §2, §3, §4, §5

[6] = molecular target: T3, HIV-1 RT K103N (Human immunodeficiency virus type 1 group M subtype B, UniProt P03366, K702N); test: Reverse transcriptase (RT) assay, K103N mutant; type: biochemical
T3 construct: an HIV RT clone pKRT2 containing only the RT p66 gene regulated by the lac operon/trc promoter; made in house; host or cells: E. coli JM109, vector pKK233-2
Text: as §2, §3, §4, §5

[7] = molecular target: T4, HIV-1 RT K103N/P225H (Human immunodeficiency virus type 1 group M subtype B, UniProt P03366, K702N/P824H); test: Reverse transcriptase (RT) assay, K103N/P225H mutant; type: biochemical
T4 construct: an HIV RT clone pKRT2 containing only the RT p66 gene regulated by the lac operon/trc promoter; made in house; host or cells: E. coli JM109, vector pKK233-2
Text: as §2, §3, §4, §5

[8] = molecular target: T5, HIV-1 RT Y188L (Human immunodeficiency virus type 1 group M subtype B, UniProt P03366, Y787L); test: Reverse transcriptase (RT) assay, Y188L mutant; type: biochemical
T5 construct: an HIV RT clone pKRT2 containing only the RT p66 gene regulated by the lac operon/trc promoter; made in house; host or cells: E. coli JM109, vector pKK233-2
Text: as §2, §3, §4, §5

[9] = molecular target: T6, HIV-1 RT Y181C (Human immunodeficiency virus type 1 group M subtype B, UniProt P03366, Y780C); test: Reverse transcriptase (RT) assay, Y181C mutant; type: biochemical
T6 construct: an HIV RT clone pKRT2 containing only the RT p66 gene regulated by the lac operon/trc promoter; made in house; host or cells: E. coli JM109, vector pKK233-2
Text: as §2, §3, §4, §5

[10] = molecular target: T7, HIV-1 RT K103N/V108I (Human immunodeficiency virus type 1 group M subtype B, UniProt P03366, K702N/V707I); test: Reverse transcriptase (RT) assay, K103N/V108I mutant; type: biochemical
T7 construct: an HIV RT clone pKRT2 containing only the RT p66 gene regulated by the lac operon/trc promoter; made in house; host or cells: E. coli JM109, vector pKK233-2
Text: as §2, §3, §4, §5

[11] = molecular target: T8, HIV-1 RT V106A (Human immunodeficiency virus type 1 group M subtype B, UniProt P03366, V705A); test: Reverse transcriptase (RT) assay, V106A mutant; type: biochemical
T8 construct: an HIV RT clone pKRT2 containing only the RT p66 gene regulated by the lac operon/trc promoter; made in house; host or cells: E. coli JM109, vector pKK233-2
Text: as §2, §3, §4, §5

[12] = system: HIV coding for mutant reverse transcriptase K103N/Y181C; test: ELISA (p24) assay of HIV replication in C8166 cell culture, K103N/Y181C virus; type: cell-based, HIV-1; settings: Human immunodeficiency virus 1, C8166, 72 h, read-out: EC50 K103N/Y181C
Description: as §1

[13] = molecular target: T9, HIV-1 RT K103N/L100I (Human immunodeficiency virus type 1 group M subtype B, UniProt P03366, K702N/L699I); test: Reverse transcriptase (RT) assay, K103N/L100I mutant; type: biochemical
T9 construct: an HIV RT clone pKRT2 containing only the RT p66 gene regulated by the lac operon/trc promoter; made in house; host or cells: E. coli JM109, vector pKK233-2
Text: as §2, §3, §4, §5

[14] = molecular target: T10, HIV-1 RT G190A (Human immunodeficiency virus type 1 group M subtype B, UniProt P03366, G789A); test: Reverse transcriptase (RT) assay, G190A mutant; type: biochemical
T10 construct: an HIV RT clone pKRT2 containing only the RT p66 gene regulated by the lac operon/trc promoter; made in house; host or cells: E. coli JM109, vector pKK233-2
Text: as §2, §3, §4, §5

[15] = molecular target: T11, HIV-1 RT Y188C (Human immunodeficiency virus type 1 group M subtype B, UniProt P03366, Y787C); test: Reverse transcriptase (RT) assay, Y188C mutant; type: biochemical
T11 construct: an HIV RT clone pKRT2 containing only the RT p66 gene regulated by the lac operon/trc promoter; made in house; host or cells: E. coli JM109, vector pKK233-2
Text: as §2, §3, §4, §5

Row | Structure (SMILES) | EC50 [1] | EC50 [2] | EC50 [3] | IC50 [4] | IC50 [5] | IC50 [6] | IC50 [7] | IC50 [8] | IC50 [9] | IC50 [10] | IC50 [11] | EC50 [12] | IC50 [13] | IC50 [14] | IC50 [15]
1 | CCN1c2ncc(CCOc3cc[n+]([O-])c4ccccc34)cc2C(=O)Nc2c(C)cc(F)nc21 [compound 9, 5,11-Dihydro-11-ethyl-2-fluoro-4-methyl-8-{2-{(1-oxido-4-quinolinyl)-oxy}ethyl}-6H-dipyrido[3,2-b:2′,3′-e][1,4]diazepin-6-one] | 5 nM | 118 nM | 0.92 nM | 175 nM | 14 nM | 23 nM | 25 nM | 3390 nM | 43 nM | 58 nM | 98 nM | 7.6 nM | 88 nM |  | 
2 | CCN1c2ncc(CCOc3cc[n+]([O-])c4ccccc34)cc2C(=O)Nc2c(C)cc(Cl)nc21 [compound 14, 2-Chloro-5,11-dihydro-11-ethyl-4-methyl-8-{2-{(1-oxido-4-quinolinyl)-oxy}ethyl}-6H-dipyrido[3,2-b:2′,3′-e][1,4]diazepin-6-one] |  |  | 0.67 nM | 61 nM | 15 nM | 19 nM | 30 nM | 2300 nM | 28 nM | 59 nM | 77 nM |  | 24 nM |  | 
3 | CCN1c2ncc(CCOc3cccc4c3ccc[n+]4[O-])cc2C(=O)N(C)c2ccc(F)nc21 [compound 18, 5,11-Dihydro-11-ethyl-2-fluoro-5-methyl-8-{2-{(1-oxido-5-quinolinyl)-oxy}ethyl}-6H-dipyrido[3,2-b:2′,3′-e][1,4]diazepin-6-one] |  |  | 0.34 nM | 146 nM | 11 nM | 37 nM | 20 nM | 1170 nM | 41 nM | 96 nM | 737 nM | 9.5 nM | 158 nM |  | 
4 | CCN1c2ncc(CCOc3ccnc4ccccc34)cc2C(=O)N(C)c2cccnc21 [compound 24, 5,11-Dihydro-11-ethyl-5-methyl-8-{2-(4-quinolinyloxy)ethyl}-6H-dipyrido[3,2-b:2′,3′-e][1,4]diazepin-6-one] |  |  |  | 70 nM | 5.6 nM |  |  | 627 nM |  |  | 344 nM |  | 169 nM | 25 nM | 
5 | CCN1c2ncc(CCOc3cccc4ncccc34)cc2C(=O)Nc2c(C)cc(Cl)nc21 [compound 25, 2-Chloro-5,11-dihydro-11-ethyl-4-methyl-8-{2-(5-quinolinyloxy)ethyl}-6H-dipyrido[3,2-b:2′,3′-e][1,4]diazepin-6-one] |  |  | 2.2 nM | 64 nM | 8 nM | 19 nM | 23 nM | 2540 nM | 17 nM | 38 nM | 84 nM |  | 28 nM |  | 
6 | CCN1C(=O)c2cc(CCOc3ccnc4ccccc34)cnc2N(CC)c2ncccc21 [compound 26, 5,11-Dihydro-5,11-diethyl-8-{2-(4-quinolinyloxy)ethyl}-6H-dipyrido[3,2-b:2′,3′-e][1,4]diazepin-6-one] |  |  | 2.2 nM | 200 nM | 8.9 nM | 40 nM | 85 nM | 5200 nM | 51 nM | 443 nM | 1750 nM |  |  |  | 147 nM
